The source of these data is patent US20050197364A1, “Amide compounds as ion channel ligands and uses thereof” (priority 2003, published 2005).

The structures appear in SMILES notation.

The test system of this assay is VR1 receptor. Briefly: High throughput calcium imaging assay (Fura2, Flex Station) of VR1 antagonists, pH 5.1 stimulus. The assay is classed as cell-based. Particulars: 1 uM compound; inhibition of calcium ion influx induced by capsaicin stimulation.
Procedure: Therefore the functional activity of compounds at the VR1 receptor may be determined by measuring changes in intracellular calcium levels in 293 cells expressing capsaicin-insensitive VR1 receptor variants. A dual wavelength ratiometric dye, Fura2, was used as an indicator of relative levels of calcium ions in a 96 well format using a bench top scanning fluorometer with integrated fluidics and temperature control (Flex Station, Molecular Devices).
293 cells were grown on PDL coated 96-well black-walled plates, in the presence of a DMEM medium containing 5% Penstrep, 5% Glutamax, 200 ug/mL Hygromycin, 5 μg/mL Blasticide and 10% heat inactivated FBS. Prior to assay, the cells were loaded with 5 μg/mL Fura2 in normal saline solution at 37° C. for 40 minutes. Cells were then washed with normal saline to remove the dye.
The assay consists of two stages; a pre-treatment phase followed by a treatment phase.
50 μl of a compound solution was added to the cells (Pre-treatment). Immediately following, 50 μl of the test compound in a saline solution at pH 5.1 was added. Fura2 was excited at 340 and 380 nM to indicate relative calcium concentration. Changes in wavelength measurements were made throughout the course of the experiment in 4 second intervals over a period of 3 minutes. Responses were measured as peak fluorescence ratio after test compound addition minus baseline fluorescence ratio prior to pre-treatment and were calculated using SoftMaxPro softwareData were expressed as percentage inhibition calculated using Excel as follows: [formula]
Regarding `COc1cccc(NC(=O)c2ccc(-c3ncccc3Cl)cc2F)c1` [Compound 74], the “% Inhibition @ 1 uM” value is given as “+ (compound exhibited 0-25% inhibition of calcium ion influx induced by capsaicin stimulation)”.

Take `COc1ccc(NC(=O)c2ccc(-c3ncccc3Cl)cc2F)cc1Cl` [Compound 79]: the “% Inhibition @ 1 uM” value was “+ + (compound exhibited 25-50% inhibition of calcium ion influx induced by capsaicin stimulation)”. Take `O=C(Nc1cccc(Br)c1)c1ccc(-c2ncccc2Cl)cc1F` [Compound 83]: the “% Inhibition @ 1 uM” value is given as “+ + + + (compound exhibited 75% or greater inhibition of calcium ion influx induced by capsaicin stimulation)”. Next, `N#Cc1cccc(NC(=O)c2ccc(-c3ncccc3Cl)cc2F)c1` [Compound 84]: “+ + + + (compound exhibited 75% or greater inhibition of calcium ion influx induced by capsaicin stimulation)”; `CC(C)(C)c1ccc(NC(=O)c2ccc(-c3ncccc3Cl)cc2F)cc1` [Compound 86]: “+ (compound exhibited 0-25% inhibition of calcium ion influx induced by capsaicin stimulation)”. Consider `Cc1cccnc1NC(=O)c1ccc(-c2ncccc2Cl)cc1F` [Compound 95], for which the “% Inhibition @ 1 uM” value is “+ (compound exhibited 0-25% inhibition of calcium ion influx induced by capsaicin stimulation)”. To `O=C(Nc1ccc(C(F)(F)F)cn1)c1ccc(-c2ncccc2Cl)cc1F` [Compound 97] belongs “+ (compound exhibited 0-25% inhibition of calcium ion influx induced by capsaicin stimulation)”; to `O=C(Nc1ncc(C(F)(F)F)cc1Cl)c1ccc(-c2ncccc2Cl)cc1F` [Compound 98], “+ (compound exhibited 0-25% inhibition of calcium ion influx induced by capsaicin stimulation)”. Regarding `O=C(Nc1cccnc1Cl)c1ccc(-c2ncccc2Cl)cc1F` [Compound 101], the “% Inhibition @ 1 uM” value was “+ (compound exhibited 0-25% inhibition of calcium ion influx induced by capsaicin stimulation)”. `COc1ccc(NC(=O)c2ccc(-c3ncccc3Cl)cc2F)cn1` [Compound 103]: the “% Inhibition @ 1 uM” value is on record as “+ (compound exhibited 0-25% inhibition of calcium ion influx induced by capsaicin stimulation)”. In the case of `O=C(Nc1ccc2ncccc2c1)c1ccc(-c2ncccc2Cl)cc1F` [Compound 107], the “% Inhibition @ 1 uM” value is “+ + (compound exhibited 25-50% inhibition of calcium ion influx induced by capsaicin stimulation)”. With `O=C(Nc1ccc2ccccc2c1)c1ccc(-c2ncccc2Cl)cc1F` [Compound 109], the “% Inhibition @ 1 uM” value is “+ + (compound exhibited 25-50% inhibition of calcium ion influx induced by capsaicin stimulation)”. To `CC(C)(C)NC(=O)c1ccc(-c2ncccc2Cl)c(F)c1` [Compound 110] belongs “+ (compound exhibited 0-25% inhibition of calcium ion influx induced by capsaicin stimulation)”; to `O=C(Nc1ccc(F)cc1)c1ccc(-c2ncccc2Cl)c(F)c1` [Compound 114], “+ (compound exhibited 0-25% inhibition of calcium ion influx induced by capsaicin stimulation)”. Next, `O=C(Nc1cccc(Cl)c1)c1ccc(-c2ncccc2Cl)c(F)c1` [Compound 116]: “+ (compound exhibited 0-25% inhibition of calcium ion influx induced by capsaicin stimulation)”; `CCCc1ccccc1NC(=O)c1ccc(-c2ncccc2Cl)c(F)c1` [Compound 118]: “+ (compound exhibited 0-25% inhibition of calcium ion influx induced by capsaicin stimulation)”; `COc1cccc(NC(=O)c2ccc(-c3ncccc3Cl)c(F)c2)c1` [Compound 119]: “+ (compound exhibited 0-25% inhibition of calcium ion influx induced by capsaicin stimulation)”. `O=C(Nc1cccc(Cl)c1Cl)c1ccc(-c2ncccc2Cl)c(F)c1` [Compound 122]: the “% Inhibition @ 1 uM” value is on record as “+ + + + (compound exhibited 75% or greater inhibition of calcium ion influx induced by capsaicin stimulation)”. To `N#Cc1cccc(NC(=O)c2ccc(-c3ncccc3Cl)c(F)c2)c1` [Compound 124] belongs “+ + + + (compound exhibited 75% or greater inhibition of calcium ion influx induced by capsaicin stimulation)”; to `CC(C)(C)c1ccc(NC(=O)c2ccc(-c3ncccc3Cl)c(F)c2)cc1` [Compound 125], “+ + + + (compound exhibited 75% or greater inhibition of calcium ion influx induced by capsaicin stimulation)”. To `CCCCc1ccc(NC(=O)c2ccc(-c3ncccc3Cl)c(F)c2)cc1` [Compound 127] belongs “+ + + + (compound exhibited 75% or greater inhibition of calcium ion influx induced by capsaicin stimulation)”. As for `Cc1ccc(NC(=O)c2ccc(-c3ncccc3Cl)c(F)c2)c(C)c1` [Compound 128], the “% Inhibition @ 1 uM” value was “+ + + + (compound exhibited 75% or greater inhibition of calcium ion influx induced by capsaicin stimulation)”. Next, `O=C(Nc1ccc(F)cc1[N+](=O)[O-])c1ccc(-c2ncccc2Cl)c(F)c1` [Compound 132]: “+ + + + (compound exhibited 75% or greater inhibition of calcium ion influx induced by capsaicin stimulation)”; `O=C(Nc1ccc(C(F)(F)F)cc1)c1ccc(-c2ncccc2Cl)c(F)c1` [Compound 135]: “+ + (compound exhibited 25-50% inhibition of calcium ion influx induced by capsaicin stimulation)”; `Cc1cc(C)nc(NC(=O)c2ccc(-c3ncccc3Cl)c(F)c2)c1` [Compound 139]: “+ (compound exhibited 0-25% inhibition of calcium ion influx induced by capsaicin stimulation)”.

As for `O=C(Nc1ccncc1)c1ccc(-c2ncccc2Cl)c(F)c1` [Compound 140], the “% Inhibition @ 1 uM” value is recorded as “+ + + + (compound exhibited 75% or greater inhibition of calcium ion influx induced by capsaicin stimulation)”. In the case of `Cc1ccnc(NC(=O)c2ccc(-c3ncccc3Cl)c(F)c2)c1` [Compound 145], the “% Inhibition @ 1 uM” value is recorded as “+ + + + (compound exhibited 75% or greater inhibition of calcium ion influx induced by capsaicin stimulation)”. With `O=C(Nc1ccc(C(F)(F)F)cn1)c1ccc(-c2ncccc2Cl)c(F)c1` [Compound 149], the “% Inhibition @ 1 uM” value is reported as “+ + (compound exhibited 25-50% inhibition of calcium ion influx induced by capsaicin stimulation)”. To `O=C(Nc1ccc(Cl)nc1)c1ccc(-c2ncccc2Cl)c(F)c1` [Compound 152] belongs “+ (compound exhibited 0-25% inhibition of calcium ion influx induced by capsaicin stimulation)”; to `COc1ccc(NC(=O)c2ccc(-c3ncccc3Cl)c(F)c2)cn1` [Compound 153], “+ + (compound exhibited 25-50% inhibition of calcium ion influx induced by capsaicin stimulation)”. Turning to `O=C(Nc1ccc2ncccc2c1)c1ccc(-c2ncccc2Cl)c(F)c1` [Compound 156], the “% Inhibition @ 1 uM” value is “+ + + + (compound exhibited 75% or greater inhibition of calcium ion influx induced by capsaicin stimulation)”.

As to `O=C(Nc1cc[nH]n1)c1ccc(-c2ncccc2Cl)c(F)c1` [Compound 158], the “% Inhibition @ 1 uM” value is on record as “+ (compound exhibited 0-25% inhibition of calcium ion influx induced by capsaicin stimulation)”. In the case of `O=C(Nc1ccc2ccccc2c1)c1ccc(-c2ncccc2Cl)c(F)c1` [Compound 160], the “% Inhibition @ 1 uM” value is given as “+ + + + (compound exhibited 75% or greater inhibition of calcium ion influx induced by capsaicin stimulation)”. For `O=C(O)c1cccc(NC(=O)c2ccc(-c3ncccc3Cl)c(F)c2)c1` [Compound 165], the “% Inhibition @ 1 uM” value is “+ (compound exhibited 0-25% inhibition of calcium ion influx induced by capsaicin stimulation)”. In the case of `O=C(Nc1ccc(Cl)c(C(=O)O)c1)c1ccc(-c2ncccc2Cl)c(F)c1` [Compound 166], the “% Inhibition @ 1 uM” value is reported as “+ + + + (compound exhibited 75% or greater inhibition of calcium ion influx induced by capsaicin stimulation)”. For the compound `COc1ccc(NC(=O)c2ccc(-c3ncccc3Cl)c(F)c2)cc1O` [Compound 170], the “% Inhibition @ 1 uM” value is given as “+ + (compound exhibited 25-50% inhibition of calcium ion influx induced by capsaicin stimulation)”. In the case of `O=C(Nc1ccc2cn[nH]c2c1)c1ccc(-c2ncccc2Cl)c(F)c1` [Compound 172], the “% Inhibition @ 1 uM” value is listed as “+ + + (compound exhibited 50-75% inhibition of calcium ion influx induced by capsaicin stimulation)”.

`CCCOc1ccc(NC(=O)c2ccc(-c3ncccc3Cl)c(F)c2)cc1` [Compound 173]: the “% Inhibition @ 1 uM” value was “+ + (compound exhibited 25-50% inhibition of calcium ion influx induced by capsaicin stimulation)”. On to `O=C(Nc1ccc(OC(F)(F)F)cc1)c1ccc(-c2ncccc2Cl)c(F)c1` [Compound 175], for which the “% Inhibition @ 1 uM” value was “+ + (compound exhibited 25-50% inhibition of calcium ion influx induced by capsaicin stimulation)”.

Regarding `O=C(Nc1cccc(OC(F)(F)F)c1)c1ccc(-c2ncccc2Cl)c(F)c1` [Compound 176], the “% Inhibition @ 1 uM” value was “+ (compound exhibited 0-25% inhibition of calcium ion influx induced by capsaicin stimulation)”. On to `CC(C)Oc1cccc(NC(=O)c2ccc(-c3ncccc3Cl)c(F)c2)c1` [Compound 177], for which the “% Inhibition @ 1 uM” value is reported as “+ (compound exhibited 0-25% inhibition of calcium ion influx induced by capsaicin stimulation)”. Regarding `O=C(Nc1ccc(F)c(F)c1)c1ccc(-c2ncccc2Cl)c(F)c1` [Compound 178], the “% Inhibition @ 1 uM” value was “+ + + (compound exhibited 50-75% inhibition of calcium ion influx induced by capsaicin stimulation)”.

Turning to `O=C(Nc1ccc(N2CCNCC2)c(Cl)c1)c1ccc(-c2ncccc2Cl)c(F)c1` [Compound 183], the “% Inhibition @ 1 uM” value is reported as “+ + + + (compound exhibited 75% or greater inhibition of calcium ion influx induced by capsaicin stimulation)”. Next, `CC1CCCc2ccc(NC(=O)c3ccc(-c4ncccc4Cl)c(F)c3)cc21` (stereo not drawn) [Compound 186]: “+ (compound exhibited 0-25% inhibition of calcium ion influx induced by capsaicin stimulation)”; `COc1cc(C(=O)NC(C)(C)C)ccc1-c1ncccc1Cl` [Compound 187]: “+ (compound exhibited 0-25% inhibition of calcium ion influx induced by capsaicin stimulation)”. With `COc1cc(C(=O)Nc2ccccc2)ccc1-c1ncccc1Cl` [Compound 189], the “% Inhibition @ 1 uM” value was “+ (compound exhibited 0-25% inhibition of calcium ion influx induced by capsaicin stimulation)”.

Take `COc1ccc(NC(=O)c2ccc(-c3ncccc3Cl)c(OC)c2)cc1` [Compound 190]: the “% Inhibition @ 1 uM” value is on record as “+ (compound exhibited 0-25% inhibition of calcium ion influx induced by capsaicin stimulation)”. Regarding `COc1cc(C(=O)Nc2ccccc2C#N)ccc1-c1ncccc1Cl` [Compound 192], the “% Inhibition @ 1 uM” value is given as “+ (compound exhibited 0-25% inhibition of calcium ion influx induced by capsaicin stimulation)”.
